Assay results taken from the NIST ThermoML archive (doi:10.1021/je201051q).

Experiment: xn = mol fraction of the nth substance listed
Details: Gas, isochoric method

C=C(F)C(F)(F)F [2,3,3,3-tetrafluoro-1-propene] + O=C=O
Details	molar volume [m3/mol]
302.61 K, 742.4 kPa, x2 = 0.16	0.002948
302.61 K, 1055.6 kPa, x2 = 0.48	0.00207
302.67 K, 1296 kPa, x2 = 0.754	0.001753
302.81 K, 736.5 kPa, x2 = 0.051	0.002904
302.86 K, 1049.3 kPa, x2 = 0.574	0.002161
302.88 K, 856.1 kPa, x2 = 0.266	0.002578
302.89 K, 1732.2 kPa, x2 = 0.662	0.001231
302.96 K, 976.1 kPa, x2 = 0.365	0.002261
303.05 K, 738 kPa, x2 = 0.051	0.002904
307.54 K, 758.8 kPa, x2 = 0.16	0.002949
312.7 K, 1352.4 kPa, x2 = 0.754	0.001753
312.79 K, 1094.3 kPa, x2 = 0.574	0.002162
312.82 K, 895.4 kPa, x2 = 0.266	0.002579
312.84 K, 1814.8 kPa, x2 = 0.662	0.001232
312.92 K, 1020.4 kPa, x2 = 0.365	0.002262
312.94 K, 773.7 kPa, x2 = 0.051	0.002905
313.12 K, 778.4 kPa, x2 = 0.16	0.002949
313.12 K, 1111.4 kPa, x2 = 0.48	0.002071
322.6 K, 1062.1 kPa, x2 = 0.365	0.002263
322.75 K, 808.1 kPa, x2 = 0.051	0.002906
323.09 K, 811.8 kPa, x2 = 0.16	0.002951
323.1 K, 934.8 kPa, x2 = 0.266	0.00258
323.1 K, 1139.4 kPa, x2 = 0.574	0.002163
323.1 K, 1407.6 kPa, x2 = 0.754	0.001754
323.1 K, 1898.7 kPa, x2 = 0.662	0.001232
323.11 K, 1157.2 kPa, x2 = 0.48	0.002071
333.06 K, 1183.4 kPa, x2 = 0.574	0.002164
333.07 K, 1106.6 kPa, x2 = 0.365	0.002264
333.08 K, 844.9 kPa, x2 = 0.16	0.002952
333.08 K, 972.6 kPa, x2 = 0.266	0.002581
333.08 K, 1202.8 kPa, x2 = 0.48	0.002072
333.08 K, 1460.2 kPa, x2 = 0.754	0.001755
333.08 K, 1979.1 kPa, x2 = 0.662	0.001233
333.09 K, 843.3 kPa, x2 = 0.051	0.002907
343.03 K, 1149.4 kPa, x2 = 0.365	0.002265
343.04 K, 1010.2 kPa, x2 = 0.266	0.002582
343.04 K, 1227 kPa, x2 = 0.574	0.002165
343.05 K, 877.5 kPa, x2 = 0.16	0.002953
343.05 K, 2058.6 kPa, x2 = 0.662	0.001233
343.06 K, 877.3 kPa, x2 = 0.051	0.002909
343.07 K, 1512.6 kPa, x2 = 0.754	0.001756
343.1 K, 1248 kPa, x2 = 0.48	0.002073
352.97 K, 1292.5 kPa, x2 = 0.48	0.002074
352.99 K, 909.5 kPa, x2 = 0.16	0.002954
352.99 K, 1191.4 kPa, x2 = 0.365	0.002266
352.99 K, 1269.8 kPa, x2 = 0.574	0.002166
352.99 K, 2136.6 kPa, x2 = 0.662	0.001234
353 K, 1046.2 kPa, x2 = 0.266	0.002583
353.02 K, 910.7 kPa, x2 = 0.051	0.00291
353.02 K, 1564.1 kPa, x2 = 0.754	0.001756
362.92 K, 943.3 kPa, x2 = 0.051	0.002911
362.92 K, 1082.5 kPa, x2 = 0.266	0.002584
362.92 K, 1232.6 kPa, x2 = 0.365	0.002267
362.94 K, 1311.6 kPa, x2 = 0.574	0.002167
362.96 K, 941.6 kPa, x2 = 0.16	0.002956
362.96 K, 1337.1 kPa, x2 = 0.48	0.002075
362.96 K, 1615.2 kPa, x2 = 0.754	0.001757
362.97 K, 2214.8 kPa, x2 = 0.662	0.001234
372.89 K, 973.3 kPa, x2 = 0.16	0.002957
372.89 K, 1119 kPa, x2 = 0.266	0.002586
372.92 K, 975.7 kPa, x2 = 0.051	0.002912
372.92 K, 1354.3 kPa, x2 = 0.574	0.002167
372.92 K, 1381.3 kPa, x2 = 0.48	0.002076
372.93 K, 2291.9 kPa, x2 = 0.662	0.001235
